This experiment relates to Rattus norvegicus. The experiment can be described thus: Anti-hypertensive activity in fructose fed-induced hypertensive rat assessed as increase in ionized calcium level in serum at 20 mg/kg administered once daily for 28 days. The note with it: time 28 day. Format: functional.

As to `C=C1/C(=C\C=C2/CCC[C@]3(C)[C@@H]([C@H](C)CCCC(C)(C)O)CC[C@@H]23)C[C@@H](O)C[C@@H]1O` [CALCITRIOL], the Activity was determined as 1.44 mM.

(Values after ChEMBL document CHEMBL5625177, “Recent advance of small-molecule drugs for clinical treatment of osteoporosis: A review” (Eur J Med Chem, 2023).)
